Data published in patent US20240425478A1, “CYCLOPENTYLPYRAZOLE CDK2 INHIBITORS” (Genentech, Inc., priority 2021, published 2024).
Where two headings read alike, the source gives them in different places.

Key:
[1] = molecular target: T1, Cyclin Dependent Kinase 4/Cyclin D3 (CDK4-cycD3) (Homo sapiens, UniProt P11802); experiment: CDK4-cycD3 TR-FRET (LANCE) enzyme assay; format: biochemical; conditions: for Ki: enzymatic assay
T1 construct: purchased Carna Biosciences 04-105
In short: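 Compound dose responses pre-incubated 30 min with enzyme mix in 50 mM HEPES pH 7.5, 10 mM MgCl2, 2 mM TCEP, 0.05% BGG, 0.01% Brij 35. Reaction quenched with EDTA (15 mM final); Eu-anti-phospho-4E-BP1 TR-FRET detection, acceptor/donor ratio. Ki derived by Morrison equation.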

HCT116 cells = experiment: p-H3 HCT-116 mitotic release cell proliferation assay (cellular CDK1); format: cell-based; conditions: for IC50: Homo sapiens
In short: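 HCT116 cells arrested 16 h with 500 nM nocodazole, then exposed to compound for 4 h at 37 °C (0.1% DMSO). Lysates read by HTRF/FRET with donor and acceptor phospho-Histone H3 (Ser10) antibodies, ≥2 h at room temperature; CDK1 inhibition seen as loss of p-H3 on mitotic release.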

[2] = molecular target: T2, Cyclin Dependent Kinase 2/Cyclin E1 (CDK2-cycE1) (Homo sapiens, UniProt P24941); experiment: CDK2-cycE1 TR-FRET (LANCE) enzyme assay; format: biochemical; conditions: for FS CDK1/CDK2 / FS CDK4/CDK2: fold selectivity; for FS CDK1/CDK2: enzymatic CDK1 Ki over CDK2 Ki; for FS CDK4/CDK2: enzymatic CDK4 Ki over CDK2 Ki
T2 construct: purchased ProQinase 0050-0055-1
In short: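 Compound dose responses pre-incubated 30 min with CDK2-cycE1 in 50 mM HEPES pH 7.5, 10 mM MgCl2, 2 mM TCEP, 0.05% BGG, 0.01% Brij 35. Reaction quenched with EDTA (15 mM final), phospho-MBP detected by Eu-anti-phospho-MBP TR-FRET (acceptor/donor ratio). Inhibition constants from Morrison equation.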

[3] = system: OVISE (JCRB1043, CCNE1-amplified); experiment: OVISE EdU incorporation cell proliferation assay (CDK2-dependent); format: cell-based; conditions: for IC50: read-out: CDK2 OVISE IC50; for FS SKOV-3/OVISE / FS p-H3/OVISE: fold selectivity; for FS SKOV-3/OVISE: cellular SKOV-3 IC50 over OVISE IC50; for FS p-H3/OVISE: cellular p-H3 IC50 over OVISE IC50
In short: (§1)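 Cells in RPMI/10% FBS dosed with compound (0.5% DMSO final) for 16 h at 37 °C, 5% CO2, then EdU 0.5 μM final for 8 h before fixation and imaging. IC50 from 4-parameter logistic fit of EdU-positive cell fraction versus dose.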

SKOV-3 (ATCC HTB-77) = experiment: SKOV-3 EdU incorporation cell proliferation assay (CDK4/6-dependent); format: cell-based; conditions: for IC50: Homo sapiens
In short: as §1

[4] = molecular target: T3, Cyclin Dependent Kinase 1/Cyclin A2 (CDK1-cycA2) (Homo sapiens, UniProt P06493); experiment: CDK1-cycA2 TR-FRET (Lance) enzyme assay; format: biochemical; conditions: for Ki: enzymatic assay
T3 construct: purchased ProQinase 0134-0054-1
T3 sequence (P06493 whole entry): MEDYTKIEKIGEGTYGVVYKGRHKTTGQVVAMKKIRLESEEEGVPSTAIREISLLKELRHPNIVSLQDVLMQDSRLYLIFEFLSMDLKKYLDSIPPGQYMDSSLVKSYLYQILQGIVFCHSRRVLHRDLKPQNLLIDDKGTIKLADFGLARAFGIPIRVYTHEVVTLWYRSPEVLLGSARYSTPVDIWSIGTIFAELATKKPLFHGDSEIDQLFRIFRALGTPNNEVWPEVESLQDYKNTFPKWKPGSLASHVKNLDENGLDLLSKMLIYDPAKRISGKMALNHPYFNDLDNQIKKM
T3 sequence (P20248 whole entry partner): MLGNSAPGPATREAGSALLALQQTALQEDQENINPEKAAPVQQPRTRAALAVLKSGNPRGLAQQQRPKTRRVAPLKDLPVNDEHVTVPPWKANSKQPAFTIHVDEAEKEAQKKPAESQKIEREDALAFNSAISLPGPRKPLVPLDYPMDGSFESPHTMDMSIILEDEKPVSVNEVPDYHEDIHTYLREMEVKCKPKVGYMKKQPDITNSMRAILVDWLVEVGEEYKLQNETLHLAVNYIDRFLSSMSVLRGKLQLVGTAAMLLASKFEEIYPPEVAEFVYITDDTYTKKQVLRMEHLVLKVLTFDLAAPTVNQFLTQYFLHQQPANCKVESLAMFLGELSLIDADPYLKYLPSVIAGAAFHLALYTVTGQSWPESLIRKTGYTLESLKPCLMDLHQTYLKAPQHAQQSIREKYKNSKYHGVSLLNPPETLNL
In short: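 Human CDK1/cyclin A2 pre-incubated 30 min with compound dose responses in 50 mM HEPES pH 7.5, 10 mM MgCl2, 2 mM TCEP, 0.05% BGG, 0.01% Brij 35. Reaction quenched with EDTA (15 mM final); TR-FRET readout using Eu-anti-phospho-4E-BP1, acceptor/donor ratio. Inhibition constants from Morrison equation.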

[5] = fold selectivity, enzymatic Ki ratio, Table P
[6] = Table O, enzymatic assay, read-out: CDK2 Ki

T1 sequence (P11802 whole entry): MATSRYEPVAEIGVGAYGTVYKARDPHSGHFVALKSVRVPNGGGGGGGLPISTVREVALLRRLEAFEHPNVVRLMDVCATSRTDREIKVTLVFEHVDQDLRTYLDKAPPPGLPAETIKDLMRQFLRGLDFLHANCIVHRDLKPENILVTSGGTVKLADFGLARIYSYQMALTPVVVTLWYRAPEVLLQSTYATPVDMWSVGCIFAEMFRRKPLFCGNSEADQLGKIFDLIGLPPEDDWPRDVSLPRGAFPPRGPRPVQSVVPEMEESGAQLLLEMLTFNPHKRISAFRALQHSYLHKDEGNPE
T1 sequence (P30281 whole entry partner): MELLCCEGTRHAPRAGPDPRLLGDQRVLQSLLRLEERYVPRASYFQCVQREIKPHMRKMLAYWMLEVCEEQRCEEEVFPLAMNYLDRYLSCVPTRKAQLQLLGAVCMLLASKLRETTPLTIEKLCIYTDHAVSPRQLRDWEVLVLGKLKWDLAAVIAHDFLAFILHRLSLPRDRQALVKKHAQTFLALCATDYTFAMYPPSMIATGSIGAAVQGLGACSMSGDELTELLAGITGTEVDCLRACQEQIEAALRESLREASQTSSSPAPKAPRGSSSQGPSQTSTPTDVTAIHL

For `CC(C)(C)NC(=O)O[C@@H]1CC[C@H](c2cc(NC(=O)Cc3ccnnc3)n[nH]2)C1` [Comparator A, reference compound], the Ki ([1]; Table P) was 38 nM, the “FS CDK4/CDK2” value [1, 5] was 224 and the “pH3/OVISE fold selectivity (CDK1 over CDK2, cellular assay data)” value (HCT116 cells) was 0.78 fold. The IC50 (HCT116 cells; HCT-116, cellular assay, Table P, read-out: CDK1 p-H3 IC50) was 31 nM, the “FS p-H3/OVISE” value (HCT116 cells; fold selectivity, cellular IC50 ratio (CDK1 over CDK2), Table P) was 0.78 and the Ki ([2]; read-out: CDK2 activity / potency (enzymatic assay)) was 0.17 nM. For the same compound, the IC50 ([3]; cellular assay, Table P) was 40 nM, the IC50 (SKOV-3 (ATCC HTB-77); SK-OV-3, cellular assay, Table P, read-out: CDK4/6 SKOV-3 IC50) was 1700 nM and the “FS SKOV-3/OVISE” value (SKOV-3 (ATCC HTB-77); fold selectivity, cellular IC50 ratio (CDK4/6 over CDK2), Table P) was 43. For the same compound, the Ki ([4]; Table P) was 9.1 nM and the “FS CDK1/CDK2” value [4, 5] was 54.

`CC(C)(C)NC(=O)O[C@@H]1CC[C@H](c2cc(Nc3ccnc(CO)c3)n[nH]2)C1` [Example 10C, (1R,3S)-3-(3-((2-(hydroxymethyl)pyridin-4-yl)amino)-1H-pyrazol-5-yl)cyclopentyl tert-butylcarbamate] gave a Ki ([1]; Table O) of 51 nM, an IC50 (HCT116 cells; HCT-116, Table O, cellular assay, read-out: CDK1 p-H3 IC50) of 180 nM and a Ki [2, 6] of 1.8 nM. For the same compound, the “FS CDK1/CDK2” value ([2]; Table O) was 32, the “FS CDK4/CDK2” value ([2]; Table O) was 28 and the IC50 ([3]; Table O, cellular assay) was 130 nM. For the same compound, the “FS SKOV-3/OVISE” value ([3]; Table O) was 44, the “FS p-H3/OVISE” value ([3]; Table O) was 1.4 and the IC50 (SKOV-3 (ATCC HTB-77); SK-OV-3, Table O, cellular assay, read-out: CDK4/6 SKOV-3 IC50) was 5700 nM. For the same compound, the Ki ([4]; Table O) was 58 nM.

In the case of `CC1(NC(=O)O[C@@H]2CC[C@H](c3cc(Nc4ccc(C#N)cn4)n[nH]3)C2)COC1` [Example 10E, (1R,3S)-3-(3-((5-cyanopyridin-2-yl)amino)-1H-pyrazol-5-yl)cyclopentyl (3-methyloxetan-3-yl)carbamate], the Ki ([1]; Table O) is reported as 64 nM, the IC50 (HCT116 cells; HCT-116, read-out: CDK1 p-H3 IC50) is reported as 120 nM and the Ki [2, 6] is reported as 0.78 nM. For the same compound, the “FS CDK1/CDK2” value ([2]; Table O) was 32, the “FS CDK4/CDK2” value ([2]; Table O) was 82 and the “FS SKOV-3/OVISE” value ([3]; Table O) was 20. The “FS p-H3/OVISE” value ([3]; Table O) was 1.1, the IC50 [3] was 110 nM and the IC50 (SKOV-3 (ATCC HTB-77); SK-OV-3, read-out: CDK4/6 SKOV-3 IC50) was 2200 nM. For the same compound, the Ki ([4]; Table O) was 25 nM.
